In patent publication US20110130397A1, “PYRROLINONE COMPOUNDS AS INHIBITORS OF BACTERIAL PEPTIDYL TRNA HYDROLASE AND USES THEREOF” (priority 2006, published 2011):

Tests used:
[1] = Cytotoxicity (CellTiter 96 Aqueous Non-Radioactive Cell Proliferation Assay); format: cell-based; settings: human, Huh7 cells
Procedure: Novel antibacterial peptidyl tRNA hydrolase inhibitors were identified using the MIC assay (inhibition ranged from 32-100%). The inhibitors were also bacteria specific, as evidenced by the low cytotoxicity observed for the human Huh7 cells (FIG. 4). Cytotoxicity was determined according to manufacturer's directions (CellTiter 96 Aqueous Non-Radioactive Cell Proliferation Assay, Promega).
Further data for representative compounds is set forth in Table 1 (MIC and cytotoxicity). Compounds were tested against S. aureus (ATCC 29213) and E. coli (BAS849—permeable) in the MIC assays. Certain compounds were also tested against other bacteria, including S. epidermis (ATCC 12228), E. faecium (ATCC 49624), and E. faecalis (ATCC 29212). Cytotoxicity was determined using Hu7 cells and Hep G2 cells. The MIC and cytotoxicity assays were performed as described above.

Row | Structure (SMILES) | CC50 [1] [µM] | melting point [°C]
1 | CC(=O)c1sc(N2C(=O)C(O)=C(C(=O)c3cc4ccccc4o3)C2c2ccc(OCc3ccccc3)cc2)nc1C (centres unmarked) [Compound 10] | > 89 | 195 to 197
2 | O=C(C1=C(O)C(=O)N(c2nccs2)C1c1ccc(OCc2ccccc2)cc1)c1cc2ccccc2o1 (centres unmarked) [Compound 53] | > 98 | 193 to 195
3 | CC(=O)c1sc(N2C(=O)C(O)=C(C(=O)c3cc4ccccc4o3)C2c2ccc(-c3ccccc3)cc2)nc1C (centres unmarked) [Compound 55] | 42.9 | 226 to 228
4 | Cc1coc(N2C(=O)C(O)=C(C(=O)c3cc4ccccc4o3)C2c2ccc(OCc3ccccc3)cc2)n1 (centres unmarked) [Compound 58] | > 94 | 169 to 171
5 | Cc1cnc(N2C(=O)C(O)=C(C(=O)c3cc4ccccc4o3)C2c2ccc(OCc3ccccc3)cc2)s1 (centres unmarked) [Compound 50] | 82 | 241 to 243
6 | CC(=O)c1sc(N2C(=O)C(O)=C(C(=O)c3cc4ccccc4o3)C2c2ccc(Oc3ccccc3)cc2)nc1C (centres unmarked) [Compound 56] | > 984 | 251 to 253
7 | CCCCOc1ccc(C2C(C(=O)c3cc4ccccc4o3)=C(O)C(=O)N2c2nc(C)c(C(C)=O)s2)cc1 (centres unmarked) [Compound 57] | > 91 | 186 to 188
8 | Cc1ccc(C2C(C(=O)c3ccc(Cl)cc3)=C(O)C(=O)N2c2nccs2)cc1 (centres unmarked) [Compound 59] | 60.5 | –
9 | CCOC(=O)c1sc(N2C(=O)C(O)=C(C(=O)c3ccc(C)cc3)C2c2cccs2)nc1C (centres unmarked) [Compound 28] | 89.1 | –
10 | O=C(C1=C(O)C(=O)N(c2nncs2)C1c1ccc(OCc2ccccc2)cc1)c1cc2ccccc2o1 (centres unmarked) [Compound 52] | > 90 | 150 to 154
11 | Cc1cc(C)c2nc(N3C(=O)C(O)=C(C(=O)c4ccc5c(c4)OCCO5)C3c3cccnc3)sc2c1 (centres unmarked) [Compound 126] | 27.4 | –
12 | CC(=O)C1=C(O)C(=O)N(c2nccs2)C1c1ccccc1 (centres unmarked) [Compound 22] | 29.7 | –
13 | O=C(C1=C(O)C(=O)N(c2nc3ccccc3s2)C1c1ccc(OCc2ccccc2)cc1)c1cc2ccccc2o1 (centres unmarked) [Compound 51] | 82.3 | 213 to 214
14 | CCc1ccc2nc(N3C(=O)C(O)=C(C(=O)c4ccccc4)C3c3cccs3)sc2c1 (centres unmarked) [Compound 118] | 10.8 | –
15 | CCCCCOc1ccc(C2C(C(=O)c3cc4ccccc4o3)=C(O)C(=O)N2c2nc(C)c(C(C)=O)s2)cc1OC (centres unmarked) [Compound 14] | 74.2 | –
16 | CC(=O)c1sc(N2C(=O)C(O)=C(C(=O)c3cc4ccccc4o3)C2c2ccccc2)nc1C (centres unmarked) [Compound 54] | 78.5 | 205 to 208
17 | Cc1ccc2nc(N3C(=O)C(O)=C(C(=O)c4cc5ccccc5o4)C3c3cccc(O)c3)sc2c1 (centres unmarked) [Compound 8] | 80.1 | –
18 | CCOC(=O)c1sc(N2C(=O)C(O)=C(C(=O)c3ccco3)C2c2ccco2)nc1C (centres unmarked) [Compound 45] | 96.2 | –
19 | CCc1ccc2nc(N3C(=O)C(O)=C(C(=O)c4ccco4)C3c3cccs3)sc2c1 (centres unmarked) [Compound 122] | 58.2 | –
20 | Cc1nnc(N2C(=O)C(O)=C(C(=O)c3ccc(OC(C)C)cc3)C2c2ccco2)s1 (centres unmarked) [Compound 33] | > 110 | –
21 | COc1cc(C2C(C(=O)c3cc4ccccc4o3)=C(O)C(=O)N2c2nnc(C)s2)ccc1OCc1ccccc1 (centres unmarked) [Compound 9] | > 90 | –
22 | CCOc1cc(C2C(C(=O)c3cc4ccccc4o3)=C(O)C(=O)N2c2nnc(SCc3ccccc3)s2)ccc1O (centres unmarked) [Compound 7] | > 85 | –
